From patent US6784201B2, “Benzothiepines having activity as inhibitors of ileal bile acid transport and taurocholate uptake” (G.D. Searle & Company, priority 1994, dated 2004)
Where two headings read alike, the source gives them in different places.

Tests used:
human IBAT = target: T1, human IBAT (Homo sapiens, UniProt Q12908); experiment: In vitro assay of IBAT-mediated uptake of [14C]-taurocholate (TC) in H14 cells; type: cell-based
T1 construct: expressed in transfected cells; host or cells: Baby hamster kidney (BHK) cells, clone H14
T1 sequence (Q12908 1-348): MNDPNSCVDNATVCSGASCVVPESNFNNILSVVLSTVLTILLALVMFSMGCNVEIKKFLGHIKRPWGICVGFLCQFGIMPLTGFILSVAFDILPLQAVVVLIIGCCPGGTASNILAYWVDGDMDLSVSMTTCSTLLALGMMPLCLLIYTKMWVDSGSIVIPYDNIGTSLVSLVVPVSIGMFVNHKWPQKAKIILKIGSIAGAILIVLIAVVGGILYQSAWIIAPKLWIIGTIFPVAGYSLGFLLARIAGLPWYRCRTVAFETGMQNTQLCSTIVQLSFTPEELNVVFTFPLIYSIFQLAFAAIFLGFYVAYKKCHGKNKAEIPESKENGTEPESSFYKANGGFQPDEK
Method in brief: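 BHK cells stably expressing human IBAT (H14) were incubated 2 h at 37° C with compound and 3 μM final [14C]-taurocholate in DMEM (4.5 g/L glucose) plus 0.2% fatty acid-free BSA. After cold PBS washes, cell-associated radioactivity was measured by scintillation counting.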

[1] = tested on: Rat Ileal Uptake of [14C]-Taurocholate; experiment: In vivo assay of rat ileal uptake of [14C]-taurocholate into bile (ileal loop)
Protocol: In Vivo Assay of Compounds that Inhibit Rat Ileal Uptake of [^14C]-Taurocholate into Bile
(See “Metabolism of 3α,7β-dihydroxy-7α-methyl-5β-cholanoic acid and 3α,7β-dihydroxy-7α-methyl-5β-cholanoic acid in hamsters” in Biochimica et Biophysica Acta 833 (1985) 196-202 by Une et al.)
Male wistar rats (200-300 g) are anesthetized with inactin @100 mg/kg. Bile ducts are cannulated with a 10″ length of PE10 tubing. The small intestine is exposed and laid out on a gauze pad. A canulae (⅛″ luer lock, tapered female adapter) is inserted at 12 cm from the junction of the small intestine and the cecum. A slit is cut at 4 cm from this same junction (utilizing a 8 cm length of ileum). 20 ml of warm Dulbecco's phosphate buffered saline, pH 6.5 (PBS) is used to flush out the intestine segment. The distal opening is cannulated with a 20 cm length of silicone tubing (0.02″ I.D.×0.037″ O.D.). The proximal cannulae is hooked up to a peristaltic pump and the intestine is washed for 20 min with warm PBS at 0.25 ml/min. Temperature of the gut segment is monitored continuously. At the start of the experiment, 2.0 ml of control sample ([^14C]-taurocholate @ 0.05 mi/ml with 5 mM cold taurocholate) is loaded into the gut segment with a 3 ml syringe and bile sample collection is begun. Control sample is infused at a rate of 0.25 ml/min for 21 min. Bile samples fractions are collected every 3 minute for the first 27 minutes of the procedure. After the 21 min of sample infusion, the ileal loop is washed out with 20 ml of warm PBS (using a 30 ml syringe), and then the loop is washed out for 21 min with warm PBS at 0.25 ml/min. A second perfusion is initiated as described above but this with test compound being administered as well (21 min administration followed by 21 min of wash out) and bile sampled every 3 min for the first 27 min. If necessary, a third perfusion is performed as above that typically contains the control sample.

Serum Cholesterol = experiment: Determination of serum cholesterol (SER.CHOL, HDL-CHOL, TGI, VLDL+LDL), cholesterol-fed hamsters; type: in vivo, hamster; settings: 0.2% Cpd. No. 25, mean (SEM)
Protocol: Determination of Serum Cholesterol (SER.CHOL, HDL-CHOL, TGI and VLDL+LDL)
Total serum cholesterol (SER.CHOL) was measured enzymatically using a commercial kit from Wako Fine Chemicals (Richmond, Va.); Cholesterol C11, Catalog No. 276-64909. HDL cholesterol (HDL-CHOL) was assayed using this same kit after precipitation of VLDL and LDL with Sigma Chemical Co. HDL Cholesterol reagent, Catalog No. 352-3 (dextran sulfate method). Total serum triglycerides (blanked) (TGI) were assayed enzymatically with Sigma Chemical Co. GPO-Trinder, Catalog No. 337-B. VLDL and LDL (VLDL+LDL) cholesterol concentrations were calculated as the difference between total and HDL cholesterol.

Hepatic Cholesterol [2] = experiment: Hepatic cholesterol concentration, cholesterol-fed hamsters; type: in vivo, hamster; settings: 0.2% Cpd. No. 25, mean (SEM)
Protocol: (§1) Measurement of Hepatic Cholesterol Concentration (Hepatic CHOL)
(§2) Liver tissue was weighed and homogenized in chloroform:methanol (2:1). After homogenization and centrifugation the supernatant was separated and dried under nitrogen. The residue was dissolved in isopropanol and the cholesterol content was measured enzymatically, using a combination of cholesterol oxidase and peroxidase, as described by Allain, C. A., et al. (1974) Clin. Chem. 20, 470.

Fecal Bile Acid = experiment: Fecal bile acid concentration (FBA), cholesterol-fed hamsters; type: in vivo, hamster; settings: 0.2% Cpd. No. 25, mean (SEM)
Protocol: Measurement of Fecal Bile Acid Concentration (FBA)
Total fecal output from individually housed hamsters was collected for 24 or 48 hours, dried under a stream of nitrogen, pulverized and weighed. Approximately 0.1 gram was weighed out and extracted into an organic solvent (butanol/water). Following separation and drying, the residue was dissolved in methanol and the amount of bile acid present was measured enzymatically using the 3α-hydroxysteroid steroid dehydrogenase reaction with bile acids to reduce NAD. (Reference: Mashige, F., et al. (1981) Clin. Chem. 27, 1352).

Hepatic Cholesterol [3] = experiment: Hepatic cholesterol concentration, rat Alzet minipump model; type: in vivo; settings: 20 MPL/DAY, mean (SEM)
Protocol: as §1, §2

CCCC[C@]1(CC)CS(=O)(=O)c2cc(OC)ccc2[C@@H](c2ccccc2)[C@H]1O [Example 25, (3α,4β,5β) 3-Butyl-3-ethyl-4-hydroxy-8-methoxy-5-phenyl-2,3,4,5-tetrahydrobenzothiepine-1,1-dioxide] gave an IC50 (human IBAT; H14 cells, Table 5, read-out: IC50 uM (In vitro Taurocholate Cell Uptake)) of 0.1 µM, an IC50 (human IBAT; Table 6, read-out: TC-uptake (H14 cells) IC(50)) of 0.1 µM and an activity at 100 µM ([1]; Rattus norvegicus, read-out: % of Control Transport of TC in Rat Ileum @ 0.1 mM) of 26%. For the same compound, the EC50 ([1]; rat ileal loop, read-out: TC-uptake Ileal Loop EC(50)) was 20000 nM, the “HDL-CHOL (mg %)” value (Serum Cholesterol) was 76 (1) *A, B mg % and the “SER.CHOL (mg %)” value (Serum Cholesterol) was 126 (2) mg %. The “TGI (mg %)” value (Serum Cholesterol) was 175 (11) mg %, the “VLDL + LDL” value (Serum Cholesterol; difference total minus HDL cholesterol) was 50 (3) and the “HEPATIC CHOL (mg/g)” value (Hepatic Cholesterol [2]) was 1.9 (0.1) mg/g. For the same compound, the “FBA (mM/24 H/100 g)” value (Fecal Bile Acid) was 11.9 (0.5) mM/24 H/100 g and the “HEPATIC CHOL (mg/g)” value (Hepatic Cholesterol [3]) was 2.0 (0.03) mg/g.
